From PMC6017477, “In Vitro ADME Properties of Two Novel Antimicrobial Peptoid-Based Compounds as Potential Agents against Canine Pyoderma” (Molecules : A Journal of Synthetic Chemistry and Natural …, 2018) come the findings set out here.

The subject of data set [1] is Staphylococcus pseudintermedius. In kind it is cell-based. The following applies: irrespective of the strain being MSSP or MRSP; Mueller-Hinton broth, 35 °C, 16–20 h. As to the method:
Assays were performed by microbroth dilution of test compounds in Mueller-Hinton broth (MHB) in microtiter plates (Corning 96-well clear polypropylene round bottom plates, non-treated) according to the Clinical and Laboratory Standard Institute guidelines. The compounds were tested in concentrations ranging from 1 to 64 μg/mL (1, 2, 4, 8, 16, 32, 64 μg/mL). Briefly, bacteria were streaked on blood agar plates and incubated overnight at 37 °C. From these plates, colonies were suspended in saline solution and adjusted by nephelometer to obtain turbidity equivalent to a 0.5 McFarland standard. The suspension was diluted 1:100 in sterile 0.9% (w/v) saline, and 50 μL of this suspension was transferred to each well of the microtiter plate containing 50 μL of peptide solution in water, resulting in a concentration of 5 × 10^5 CFU/well. The microtiter plate was sealed and incubated at 35 °C for 16–20 h. Results were read by visual inspection.

Data set [2] can be described thus: in vitro. The format is cell-based. The conditions noted are these: dog. An excerpt:
B1 and D2 were designed on the basis that the majority of antimicrobial peptides are cationic and hydrophobic. We envisaged that short linear peptide-peptoid hybrids consisting of cationic lysines and hydrophobic peptoid residues would result in derivatives with potent antibacterial activity and low cytotoxicity. […] Repeated experiments on different days with different human blood samples confirmed the results.

Data set [3] addresses T1, trypsin (Bos taurus, UniProt P00760).
T1 sequence (P00760 24-246): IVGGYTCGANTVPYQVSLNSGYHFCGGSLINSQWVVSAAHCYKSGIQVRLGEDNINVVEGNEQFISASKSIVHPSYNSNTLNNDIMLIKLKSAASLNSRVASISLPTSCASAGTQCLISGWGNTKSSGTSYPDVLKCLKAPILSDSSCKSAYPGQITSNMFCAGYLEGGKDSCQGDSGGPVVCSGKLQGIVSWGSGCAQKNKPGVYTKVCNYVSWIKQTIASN
The data set is described as follows: Stability to proteases: trypsin. As to the method: Solutions, concentrations, and reaction temperatures were selected according to manufacturer’s recommendations for total peptide digestion. A stock solution of 1 mM trypsin was prepared in 1 mM Tris HCl buffer solution containing 20 mM Ca^2+. […] […] Chymotrypsin was solubilized at 10 mg/mL in 1 mM HCl solution containing 2 mM CaCl2. […] Chymotrypsin reaction was conducted in 100 mM Tris HCl containing 10 mM CaCl2, pH 7.8 at 30 °C. […] At time 0, 3, and 6 h, 50 µL aliquots were removed for RP-HPLC analysis (see supplementary Materials, Section S3).

The target in data set [4] is α-chymotrypsin (Bos taurus, UniProt P00766). The procedure:
Solutions, concentrations, and reaction temperatures were selected according to manufacturer’s recommendations for total peptide digestion. A stock solution of 1 mM trypsin was prepared in 1 mM Tris HCl buffer solution containing 20 mM Ca^2+. […] Reaction was conducted at 37 °C for 6 h. Chymotrypsin was solubilized at 10 mg/mL in 1 mM HCl solution containing 2 mM CaCl2. […] Chymotrypsin reaction was conducted in 100 mM Tris HCl containing 10 mM CaCl2, pH 7.8 at 30 °C. […] At time 0, 3, and 6 h, 50 µL aliquots were removed for RP-HPLC analysis (see supplementary Materials, Section S3).

Data set [5] in a line: in vitro. The conditions noted are these: liver microsomes. The source says: Liver microsomal assay is used to determine hepatic intrinsic clearance of a drug and identification and profile of metabolites across species. Evaluation of microsomal stability of compounds in different species is common procedure in the drug discovery process to evaluate different metabolites in case of instability.
Dog and human microsomes were obtained from XenoTech LLC (Kansas City, KS, USA) and reconstituted in buffer containing D-(L)-isocitrate trisodium salt and 10 U/mL isocitrate dehydrogenase type IV glycerol solution (procine). […] The reaction was initiated by adding NADPH and substrate to reconstituted microsomes. A final concentration of 1 µM substrate was incubated with 0.5 mg/mL microsomes in the presence of 1 mM NADP^+ in 100 mM PBS with 1 mM MgCl2. Samples were collected at 0, 5, 10, 20, 30, and 60 min. The reaction was conducted at 37 °C before termination by addition of ACN, and analysis was conducted by LC-MS/MS (similar to the method described above). Controls with no drug and with no microsome regeneration system (buffer only) were included. All samples were prepared in triplicate. The rate of degradation by metabolism was measured on the basis of the difference of substrate concentration remaining at every time point. Metabolic half-lives were calculated as mentioned above.
A general note: Liver microsomes are vesicles of endoplasmic reticulum, rich in cytochrome P450 enzymes.

The nature of data set [6]: Plasma protein binding, rapid equilibrium dialysis. In kind it is in vitro ADME, dog. The following applies: Beagle, dog; for recovery at 4 h, 30.8 µM: pH 7.4, % Average Recovery; for fraction unbound at 4 h, 30.8 µM: plasma. As to the method: (§1) The plasma protein binding properties of candidate drugs can influence their efficacy, safety, and distribution. The fraction of peptoid bound to proteins of plasma collected from dogs was determined using rapid equilibrium dialysis.
(§2) Plate inserts comprised two side-by-side chambers separated by a dialysis membrane (8K MWCO). The chambers contained […] plasma or 350 µL dialysis buffer (PBS buffer pH 7.4), respectively. Dogplasma lot was identical to the one used in the plasma stability assay. […] Plates were sealed and incubated at 37 °C for 4 h on a shaker. Each test was run in quadruplicate in dog plasma. Upon completion of the assay, the plasma protein binding was determined by protein precipitation with ACN of both plasma and PBS, and drug levels were quantified via LC-MS/MS as described above. The percentage of bound compounds was determined from peak areas using Equations (3) and (4):% free = (concentration buffer chamber/concentration plasma chamber) × 100%(3) % bound = 100% − % free(4)

In data set [7] the test system is dog plasma proteins. The data set can be described thus: Plasma protein binding, rapid equilibrium dialysis. The conditions noted are these: Beagle, dog, 4 h, 30.8 µM, pH 7.4. The format is in vitro ADME. As to the method:
as §1, §2
On the technique in general: In equilibrium dialysis only unbound substance equilibrates across the membrane.

For data set [8], the system named is pronase. The data set is described as follows: in vitro. The following applies: pronase from Streptomyces griseus, pH 8.
The mark [9] stands for this setting: pH 7.4, % Unbound (free fraction).

Non-standard residues stand in square brackets, D forms with d. Residues, ends and D or L forms follow the SMILES beside them. N(1-naphthylmethyl)Gly = O=C(O)CNCc1cccc2ccccc12; N(4-MeBn)Gly = Cc1ccc(CNCC(=O)O)cc1; NBuGly = CCCCNCC(=O)O; Nlys = NCCCCNCC(=O)O

For orientation: half-life means the time in which the quantity being followed falls by half. Lower therefore signals rapid decline. What is called share remaining is what is left of the initial amount, in per cent. For orientation: fraction unbound means free concentration divided by total concentration. For `CCCCN(CC(N)=O)C(=O)CN(CCCCN)C(=O)CN(Cc1cccc2ccccc12)C(=O)CN(CCCCN)C(=O)CN(Cc1ccc(C)cc1)C(=O)CN(Cc1cccc2ccccc12)C(=O)CN(CCCCN)C(=O)CNCCCCN` [Compound D2] (H-[Nlys][Nlys][N(1-naphthylmethyl)Gly][N(4-MeBn)Gly][Nlys][N(1-naphthylmethyl)Gly][Nlys][NBuGly]-NH2), the “Minimum inhibitory concentration (MIC)” value in data set [1] is 2 to 4 mg/L. In addition, the hemolysis at 150 µM in data set [2] was determined as 22%. Besides, in data set [3], the “degradation after 24 h of incubation with trypsin” value was “no degradation”. Also, the “degradation after α-chymotrypsin exposure” value in data set [4] is recorded as “no degradation”. Further, the half-life in data set [5] (dog) and in data set [5] (human) was more than 2 h in each case. This compound also yielded a share remaining at 1 h, 1 µM in data set [5] of 77%. For the same compound, in data set [6], the recovery at 4 h, 30.8 µM was more than 70%. Also, the fraction unbound at 4 h, 30.8 µM in data set [6] (setting [9]) is 0.0143; in data set [6] (pH 7.4, Bound to plasma proteins), less than 0.02. In addition, the “% Average Recovery” value in data set [7] was 70.8%. Besides, the “Bound to plasma proteins” value in data set [7] (plasma) was 98.6%. This compound registered a metabolised at 24 h, 0.2 µM in data set [8] of 0.2%.
Consider `CCCCN(CC(=O)N[C@@H](CCCCN)C(=O)N(CC(=O)N(CC(=O)N(CC(N)=O)Cc1cccc2ccccc12)Cc1ccc(C)cc1)Cc1cccc2ccccc12)C(=O)[C@H](CCCCN)NC(=O)[C@@H](N)CCCCN` [Compound B1] (H-KK[NBuGly]K[N(1-naphthylmethyl)Gly][N(4-MeBn)Gly][N(1-naphthylmethyl)Gly]-NH2), for which the “Minimum inhibitory concentration (MIC)” value in data set [1] lay within 2 to 4 mg/L. The same compound yielded a hemolysis at 150 µM in data set [2] of 45%. The metabolised at 24 h, 1 mg/mL in data set [3] (isolated enzyme trypsin) was 6%. The “degradation after α-chymotrypsin exposure” value in data set [4] is given as “no degradation”. Moreover, the half-life at 1 µM in data set [5] (dog) and in data set [5] (human) was more than 2 h each time. This compound also had a share remaining at 1 h, 1 µM in data set [5] of 100%. In data set [6], the recovery at 4 h, 30.8 µM is more than 70%. This compound also came in with a fraction unbound at 4 h, 30.8 µM in data set [6] (setting [9]) of 0.0016. The “% Average Recovery” value in data set [7] is 75.6%. In data set [8], the metabolised at 24 h, 0.2 µM turned out to be 38%.
